This is an account of results in patent publication US9110082B2, “Methods for the identification and treatment of patients sensitive to anti IGF-1R inhibition therapy” (MERCK SHARP & DOHME CORP., priority 2009, dated 2015).

One experiment deals with 22 NSCLC cell lines. The settings on record: growth inhibition assay; cited from earlier work.
Experiment [1] deals with xenograft models with low levels of IGF-1R expression (SKMES & NCI-H520). The experiment in a line: Xenograft growth assessment, NSCLC models with low IGF-1R. Format: in vivo, nu/nu mice. The note with it: SKMES & NCI-H520 xenografts. On the procedure: (§1) When tumors reached a size of ˜300 mm3 (Length*Width*Width*0.5), mice were randomized into treatment groups. […] Tumor weight was determined at termination. […] Mice were sacrificed 24 hr after the final dose.

For the next experiment, the system named is Colo699 cell line. In words: Anchorage independent growth (soft agar) assay, Colo699. The settings on record: LKB1-high cell line; IGF-1 over-expression. Format: cell-based, human. The protocol: (§2) All NSCLC cell lines were obtained from ATCC and maintained in 10% fetal bovine serum, FBS (Hyclone) containing media (DMEM or RPMI; Invitrogen Inc) supplemented with pen-strep (Invitrogen) at 37° C. according to the instructions from ATCC.
Soft agar assays were conducted in 96 well glass bottom plates (MATRICAL). Cells were seeded at a concentration of 3,000-9,000 cells per WELL in 100 μl RPMI 1640 (INVITROGEN) supplemented with 14% FBS and 0.3% (w/v) […] Agarose (Lonza Rockland, Inc) on top of a bottom layer of consisting of the same culture media supplemented with 0.8% agarose. Compounds were added in 100μl of culture media supplemented after agarose had solidified. Cells were incubated for 7-14 days before staining overnight with LAVA CELL(Active Motif). Colonies were quantified using an ISOCYTE laser scanning cytometer.

Experiment [2] concerns NSCLC cell lines expressing high levels of IGF-1R (NCI-H2122, A549, NCI-H460). In words: Xenograft growth assessment, NSCLC models with high IGF-1R. Type of experiment: in vivo, nu/nu mice. The settings on record: NCI-H2122, A549, NCI-H460 xenografts; as compared to erlotinib. The protocol:
as §1

In a further experiment the test system is NSCLC cell lines. The experiment in a line: Anchorage independent growth (soft agar colony formation) assay in a panel of NSCLC cell lines. Format: cell-based, human. On the procedure: as §2
Soft agar assays were conducted in 96 well glass bottom plates (MATRICAL). Cells were seeded at a concentration of 3,000-9,000 cells per WELL in 100 μl RPMI 1640 (INVITROGEN) supplemented with 14% FBS and 0.3% (w/v) […] Agarose (Lonza Rockland, Inc) on top of a bottom layer of consisting of the same culture media supplemented with 0.8% agarose. […] Cells were incubated for 7-14 days before staining overnight with LAVA CELL(Active Motif). Colonies were quantified using an ISOCYTE laser scanning cytometer.

Take “R1507: fully human IgG1 monoclonal antibody directed against the extracellular portion of the human IGF-1R”: the “sensitivity of NSCLC cell lines to R1507” value in the experiment on 22 NSCLC cell lines is recorded as “none of the lines displayed “high sensitivity””.
For “MK-0646: humanized antibody characterized as binding IGF-1R as well as the IR/IGF-1 hybrid receptor; described in U.S. Pat. No. 7,241,444”, the figures for the xenograft sensitivity result in experiment [1] and in experiment [2] were “did not show sensitivity” and “significant sensitivity”, respectively. Moreover, in the experiment on Colo699 cell line, the “sensitivity of Colo699 cell line” value is recorded as “very sensitive”. Moreover, in the experiment on NSCLC cell lines (26 NSCLC cell lines, MK-0646 10 ug/ml, erlotinib 1 uM, IGF-1R high cell lines), the “sensitivity (anchorage independent growth inhibition) of NSCLC cell lines expressing high levels of IGF-1R” value is “more sensitive”. Moreover, the “sensitivity in IGF-1R high cell lines expressing low levels of LKB1” value with NSCLC cell lines (IGF-1R and LKB1 protein by RPPA) was “enriched”. Besides, in the experiment with NSCLC cell lines (LKB1 protein not detectable by western blot (LKB1-low; n=11)), the “MK-0646 sensitivity in LKB1-low cell lines” value is “significantly enriched”.
